According to patent publication US12116371B2, “Substituted pyridines as irreversible inhibitors of menin-MLL interaction” (BIOMEA FUSION, INC., priority 2018, dated 2024):
Where two headings read alike, the source gives them in different places.

Tests used:
SK-LU-1/AMG510 cells = assay: Proliferation assay, cells in adhesion; format: cell-based; details: for IC50: Homo sapiens
MIAPaCa-2/AMG510 cells = assay: Proliferation assay, cells in adhesion; format: cell-based; details: for IC50: Homo sapiens
OCI-AML-3 cells = assay: Long term proliferation assay, Cell Titer-Glo read-out; format: cell-based; details: for IC50: Homo sapiens; for % max: OCI-AML3
Procedure: (§1) Compounds of invention are tested in the 5 suspension lines by 14-day long-term proliferation assay.
(§2) The compound is tested in 10-pt dose titration (client will determine the starting concentration and the dilution scheme) and the final DMSO concentration is kept at 0.2%.
(§3) On Day 0, in a flat bottom 96-well plate, add 100 μL of cells per well at the densities optimized. Prepare compounds in DMSO at 500× final concentration. Dilute the compounds with DMSO at the dilution. Dilute the compounds in media at 3× final concentration. Add 50 μL of compound or DMSO at 3× final concentration to each well. Final volume in each well is 150 μL, and final concentration of DMSO is 0.2%. Also include 3 untreated control wells, by adding 50 μL of media alone. Incubate plates for 96 hours.
(§4) To do this take the total viable cell count calculated using step: • 1. Take the average of the replicates for each dose in order to be used in splitting the cells. • 2. Use a 96 well V-bottom plate to spin down the cells to remove old media and compound to split the cells. • 3. Based on the split ratio place the proper amount of media and cells into the V-bottom plate, and spin the plate at 1100 rpm for 5 minutes. • 4. Following the spin remove the media, careful not to disturb the cell pellet. Re-suspend pellet in 100 μL fresh media, and add to a new 96-well flat bottom plate. • 5. Add fresh compound, in the same manner as Step 3). • 6. Incubate plates for 72 hours. Repeat steps 5)-10) on Day 7. • 7. Incubate plates for 96 hours. Repeat Step 5)-10) on Day 11. • 8. Incubate 72 hours and repeat step 5) to take a final count. • 9. Data Analysis
(§5) To calculate growth for days 4, 7, 11, and 14: • 1. Calculate the split factor for day 4 to 7, day 7 to 11, and day 11-14. The split factor is the viable cells/mL on Day X (either 4, 7 or 11) divided by the density the cells are being split back to. • 2. For growth of cells from day 4 to 7, multiply the day 7 viable cells/mL density by the split factor from day 4. • 3. For growth of cells from day 7 to 11, multiply the day 11 viable cells/mL density by the days 4, and 7 split factors. • 4. For growth of cells from Day 11 to 14, multiply the Day 14 viable cells/mL density by the days 4, 7, and 11 split factors. • 5. Plot growth on semi-log chart (viable cells/mL on Y axis, in log, and days on X axis). • 6. The growth inhibition was calculated with the formula ((untreated cell numbers-treated cell numbers)/untreated cell)). • 7. Calculate the IC50 for each compound in each line using XLFit (Sigmoidal Dose-Response Model, y=(Bottom+((Top-Bottom)/(1+((IC50/×)^Hill))))).

KG-1 cells = assay: as above; format: cell-based; details: for IC50: Homo sapiens
Procedure: as §1, §2, §3, §4, §5

MOLM-13 cells = assay: as above; format: cell-based, human; details: for IC50: Homo sapiens
Procedure: as §1, §2, §3, §4, §5

MV4-11 cells = assay: as above; format: cell-based, human; details: for IC50: Homo sapiens
Procedure: as §1, §2, §3, §4, §5

SK-LU-1 cells = assay: Proliferation assay, cells in adhesion; format: cell-based; details: for IC50: Homo sapiens
Panc 10.05 cells = assay: Proliferation assay, cells in adhesion; format: cell-based; details: for IC50: Homo sapiens

CN(C)C/C=C/C(=O)Nc1ccc(CC(=O)Nc2ccc(-c3cc4c(N5CCOCC5)ncnc4[nH]3)cc2)cc1 [Compound 5]
IC50 (SK-LU-1/AMG510 cells; SK-LU-1, SK-LU-1/AMG510, T4, read-out: IC50): > 5000 nM
IC50 (SK-LU-1/AMG510 cells; SK-LU-1, SK-LU-1/AMG510, T4, read-out: pIC50 (converted)): > 5010 nM
IC50 (SK-LU-1/AMG510 cells; SK-LU-1, SK-LU-1/AMG510, T7, read-out: IC50): > 5000 nM
IC50 (SK-LU-1/AMG510 cells; SK-LU-1, SK-LU-1/AMG510, T7, read-out: pIC50 (converted)): > 5010 nM
IC50 (SK-LU-1/AMG510 cells; SK-LU-1/AMG510, T11, read-out: IC50): > 5000 nM
IC50 (SK-LU-1/AMG510 cells; SK-LU-1/AMG510, T11, read-out: pIC50 (converted)): > 5010 nM
% max (SK-LU-1/AMG510 cells; SK-LU-1/AMG510, T4): <50%
% max (SK-LU-1/AMG510 cells; SK-LU-1/AMG510, T7): <50%
% max (SK-LU-1/AMG510 cells; SK-LU-1/AMG510, T11): <50%
IC50 (MIAPaCa-2/AMG510 cells; MIA PaCa-2, MIAPaCa-2/AMG510, T4, read-out: IC50): 810 nM
IC50 (MIAPaCa-2/AMG510 cells; MIA PaCa-2, MIAPaCa-2/AMG510, T4, read-out: pIC50 (converted)): 813 nM
IC50 (MIAPaCa-2/AMG510 cells; MIA PaCa-2, MIAPaCa-2/AMG510, T7, read-out: IC50): 350 nM
IC50 (MIAPaCa-2/AMG510 cells; MIA PaCa-2, MIAPaCa-2/AMG510, T7, read-out: pIC50 (converted)): 347 nM
IC50 (MIAPaCa-2/AMG510 cells; MIAPaCa-2/AMG510, T11, read-out: IC50): 270 nM
IC50 (MIAPaCa-2/AMG510 cells; MIAPaCa-2/AMG510, T11, read-out: pIC50 (converted)): 269 nM
% max (MIAPaCa-2/AMG510 cells; MIAPaCa-2/AMG510, T4): 92%
% max (MIAPaCa-2/AMG510 cells; MIAPaCa-2/AMG510, T7): 98%
% max (MIAPaCa-2/AMG510 cells; MIAPaCa-2/AMG510, T11): 99%
IC50 (OCI-AML-3 cells; OCI-AML-3, 96 h, OCI-AML-3, Day 4, Cell Titer-Glo, read-out: Day 4 IC50): 830 nM
IC50 (OCI-AML-3 cells; OCI-AML-3, 168 h, OCI-AML-3, Day 7, Cell Titer-Glo, read-out: Day 7 IC50): 660 nM
IC50 (OCI-AML-3 cells; OCI-AML-3, 264 h, OCI-AML-3, Day 11, Cell Titer-Glo, read-out: Day 11 IC50): 580 nM
IC50 (OCI-AML-3 cells; OCI-AML-3, 336 h, OCI-AML-3, Day 14, Cell Titer-Glo, read-out: Day 14 IC50): 600 nM
IC50 (OCI-AML-3 cells; OCI-AML-3, OCI-AML3, T4, CellTiter-Glo, read-out: IC50): 830 nM
IC50 (OCI-AML-3 cells; OCI-AML-3, OCI-AML3, T4, CellTiter-Glo, read-out: pIC50 (converted)): 832 nM
IC50 (OCI-AML-3 cells; OCI-AML-3, OCI-AML3, T11, CellTiter-Glo, read-out: IC50): 580 nM
IC50 (OCI-AML-3 cells; OCI-AML-3, OCI-AML3, T11, CellTiter-Glo, read-out: pIC50 (converted)): 575 nM
% max (OCI-AML-3 cells; T4, CellTiter-Glo): 97%
% max (OCI-AML-3 cells; T11, CellTiter-Glo): 99%
IC50 (KG-1 cells; 96 h, Day 4, Cell Titer-Glo, read-out: Day 4 IC50): > 5000 nM
IC50 (KG-1 cells; 168 h, Day 7, Cell Titer-Glo, read-out: Day 7 IC50): > 5000 nM
IC50 (KG-1 cells; 264 h, Day 11, Cell Titer-Glo, read-out: Day 11 IC50): 4680 nM
IC50 (KG-1 cells; 336 h, Day 14, Cell Titer-Glo, read-out: Day 14 IC50): 4070 nM
IC50 (KG-1 cells; T4, CellTiter-Glo, read-out: IC50): > 5000 nM
IC50 (KG-1 cells; T4, CellTiter-Glo, read-out: pIC50 (converted)): > 5010 nM
IC50 (KG-1 cells; T11, CellTiter-Glo, read-out: IC50): 4680 nM
IC50 (KG-1 cells; T11, CellTiter-Glo, read-out: pIC50 (converted)): 4680 nM
% max (KG-1 cells; T4, CellTiter-Glo): <50%
% max (KG-1 cells; T11, CellTiter-Glo): 59%
IC50 (MOLM-13 cells; MOLM-13, 96 h, MOLM-13, Day 4, Cell Titer-Glo, read-out: Day 4 IC50): 500 nM
IC50 (MOLM-13 cells; MOLM-13, 168 h, MOLM-13, Day 7, Cell Titer-Glo, read-out: Day 7 IC50): 340 nM
IC50 (MOLM-13 cells; MOLM-13, 264 h, MOLM-13, Day 11, Cell Titer-Glo, read-out: Day 11 IC50): 350 nM
IC50 (MOLM-13 cells; MOLM-13, 336 h, MOLM-13, Day 14, Cell Titer-Glo, read-out: Day 14 IC50): 360 nM
IC50 (MOLM-13 cells; MOLM-13, MOLM-13, T4, CellTiter-Glo, read-out: IC50): 500 nM
IC50 (MOLM-13 cells; MOLM-13, MOLM-13, T4, CellTiter-Glo, read-out: pIC50 (converted)): 501 nM
IC50 (MOLM-13 cells; MOLM-13, MOLM-13, T11, CellTiter-Glo, read-out: IC50): 350 nM
IC50 (MOLM-13 cells; MOLM-13, MOLM-13, T11, CellTiter-Glo, read-out: pIC50 (converted)): 355 nM
% max (MOLM-13 cells; MOLM-13, T4, CellTiter-Glo): 98%
% max (MOLM-13 cells; MOLM-13, T11, CellTiter-Glo): 99%
IC50 (MV4-11 cells; MV4-11, 96 h, MV4-11, Day 4, Cell Titer-Glo, read-out: Day 4 IC50): 360 nM
IC50 (MV4-11 cells; MV4-11, 168 h, MV4-11, Day 7, Cell Titer-Glo, read-out: Day 7 IC50): 140 nM
IC50 (MV4-11 cells; MV4-11, 264 h, MV4-11, Day 11, Cell Titer-Glo, read-out: Day 11 IC50): 110 nM
IC50 (MV4-11 cells; MV4-11, 336 h, MV4-11, Day 14, Cell Titer-Glo, read-out: Day 14 IC50): 90 nM
IC50 (MV4-11 cells; MV4-11, MV4-11, T4, CellTiter-Glo, read-out: IC50): 360 nM
IC50 (MV4-11 cells; MV4-11, MV4-11, T4, CellTiter-Glo, read-out: pIC50 (converted)): 363 nM
IC50 (MV4-11 cells; MV4-11, MV4-11, T11, CellTiter-Glo, read-out: IC50): 110 nM
IC50 (MV4-11 cells; MV4-11, MV4-11, T11, CellTiter-Glo, read-out: pIC50 (converted)): 115 nM
% max (MV4-11 cells; MV4-11, T4, CellTiter-Glo): 99%
% max (MV4-11 cells; MV4-11, T11, CellTiter-Glo): 99%
IC50 (SK-LU-1 cells; SK-LU-1, SK-LU-1, T4, read-out: IC50): > 5000 nM
IC50 (SK-LU-1 cells; SK-LU-1, SK-LU-1, T4, read-out: pIC50 (converted)): > 5010 nM
IC50 (SK-LU-1 cells; SK-LU-1, SK-LU-1, T7, read-out: IC50): > 5000 nM
IC50 (SK-LU-1 cells; SK-LU-1, SK-LU-1, T7, read-out: pIC50 (converted)): > 5010 nM
IC50 (SK-LU-1 cells; SK-LU-1, SK-LU-1, T11, read-out: IC50): > 5000 nM
IC50 (SK-LU-1 cells; SK-LU-1, SK-LU-1, T11, read-out: pIC50 (converted)): > 5010 nM
% max (SK-LU-1 cells; SK-LU-1, T4): <50%
% max (SK-LU-1 cells; SK-LU-1, T7): <50%
% max (SK-LU-1 cells; SK-LU-1, T11): <50%
IC50 (Panc 10.05 cells; Panc1005, Panc 10.05, T4, read-out: IC50): > 5000 nM
IC50 (Panc 10.05 cells; Panc1005, Panc 10.05, T4, read-out: pIC50 (converted)): > 5010 nM
IC50 (Panc 10.05 cells; Panc1005, Panc 10.05, T7, read-out: IC50): > 5000 nM
IC50 (Panc 10.05 cells; Panc1005, Panc 10.05, T7, read-out: pIC50 (converted)): > 5010 nM
IC50 (Panc 10.05 cells; Panc1005, Panc 10.05, T11, read-out: IC50): 4170 nM
IC50 (Panc 10.05 cells; Panc1005, Panc 10.05, T11, read-out: pIC50 (converted)): 4170 nM
% max (Panc 10.05 cells; Panc 10.05, T4): <50%
% max (Panc 10.05 cells; Panc 10.05, T7): <50%
% max (Panc 10.05 cells; Panc 10.05, T11): 50%
